Target: T1, GPX4 (Homo sapiens, UniProt P36969)
T1 sequence (P36969 28-197): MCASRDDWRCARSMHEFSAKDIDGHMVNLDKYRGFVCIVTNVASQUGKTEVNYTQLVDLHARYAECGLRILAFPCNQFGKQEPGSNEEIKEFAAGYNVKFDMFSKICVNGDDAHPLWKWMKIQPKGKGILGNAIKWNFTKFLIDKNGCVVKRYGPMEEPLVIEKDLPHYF
Assay: SPR (Biacore, GPX4 coupled to CM5 chip); supported by CETSA in MDA-MB-231 cells
Assay type: binding
From the text: SPR (Biacore, GPX4 coupled to CM5 chip); supported by CETSA in MDA-MB-231 cells on GPX4 | AC binds to GPX4 protein as shown by surface plasmon resonance (SPR) measurements.

`C[C@@]12CC([C@@]3(O)[C@H](O)C[C@H]4[C@@H]5C[C@H]6O[C@]67[C@@H](O)C=CC(=O)[C@]7(C)[C@H]5CC[C@@]43C)[C@@H](C1)OC(=O)[C@]2(C)O` (stereo partly shown) [AC, Anomanolide C] gave a Kd of roughly 24 µM.

— publication PMC10197885, “Anomanolide C suppresses tumor progression and metastasis by ubiquitinating GPX4-driven autophagy-dependent ferroptosis in triple negative breast cancer” (International Journal of Biological Sciences, 2023)
